From ChEMBL document CHEMBL5241136, “Design, synthesis and evaluation of heterocyclic 2-phenylacetate derivatives as water-soluble rapid recovery hypnotics” (Bioorg Med Chem Lett, 2023)

Tests used:
[1] = n-Octanol/water partition coefficient, logP of the compound; type: physicochemical
[2] = test system: Mus musculus; experiment: Anesthetic activity in mouse assessed as concentration required to induce hypnotic effect; type: functional
[3] = target: GABA-A receptor; anion channel (Homo sapiens) (UniProt P14867+P47870+P18507+P28472+P48169+Q99928+Q9UN88+P34903+O00591+O14764+Q8N1C3+P18505+P78334+P47869+P31644+Q16445); experiment: Inhibition of GABAA receptor (unknown origin) at 50 uM by radioligand receptor binding assay relative to control; type: protein-complex assay
[4] = Toxicity in mouse assessed as lethal dose; settings: in vivo
[5] = Therapeutic index, ratio of LD50 for toxicity in mouse to HD50 for anesthetic activity in mouse assessed as concentration required to induce hypnotic effect; settings: read-out: TI
[6] = test system: Mus musculus; experiment: Anesthetic activity in mouse assessed as onset time; type: functional
[7] = test system: Mus musculus; experiment: Anesthetic activity in mouse assessed as time duration of loss of righting reflex; type: functional
[8] = test system: Mus musculus; experiment: Anesthetic activity in mouse assessed as time to walk; type: functional
[9] = test system: Mus musculus; experiment: Anesthetic activity in mouse assessed as time to behavioral recovery; type: functional
[10] = test system: Rattus norvegicus; experiment: Anesthetic activity in rat assessed as concentration required to induce hypnotic effect; type: functional
[11] = Toxicity in rat assessed as lethal dose; settings: in vivo
[12] = Therapeutic index, ratio of LD50 for toxicity in rat to HD50 for anesthetic activity in rat assessed as concentration required to induce hypnotic effect; settings: read-out: TI
[13] = test system: Oryctolagus cuniculus; experiment: Anesthetic activity in rabbit assessed as concentration required to induce hypnotic effect; type: functional
[14] = Toxicity in rabbit assessed as lethal dose; set-up: species or system Oryctolagus cuniculus; settings: in vivo
[15] = Therapeutic index, ratio of LD50 for toxicity in rabbit to HD50 for anesthetic activity in rabbit assessed as concentration required to induce hypnotic effect; settings: read-out: TI
[16] = test system: Rattus norvegicus; experiment: Anesthetic activity in rat assessed as onset time; type: functional
[17] = test system: Rattus norvegicus; experiment: Anesthetic activity in rat assessed as time duration of loss of righting reflex; type: functional
[18] = test system: Rattus norvegicus; experiment: Anesthetic activity in rat assessed as time to walk; type: functional
[19] = test system: Rattus norvegicus; experiment: Anesthetic activity in rat assessed as time to behavioral recovery; type: functional
[20] = test system: Oryctolagus cuniculus; experiment: Anesthetic activity in rabbit assessed as onset time; type: functional
[21] = test system: Oryctolagus cuniculus; experiment: Anesthetic activity in rabbit assessed as time duration of loss of righting reflex; type: functional
[22] = test system: Oryctolagus cuniculus; experiment: Anesthetic activity in rabbit assessed as time to walk; type: functional
[23] = n-octanol/water, read-out: logP

Row | Structure (SMILES) | logP [1, 23] | ED50 [2] [mg/kg] | inhibition [3] [%] | LD50 [4] [mg/kg] | selectivity ratio [5] | further results
1 | CCCOC(=O)Cc1ccc(OCC(=O)N2CCNCC2)c(OCC)c1 | 1.7 | > 100 | 23.1 | – | – | –
2 | CCOC(=O)Cc1ccc(OCC(=O)N2CCNCC2)c(OCC)c1 | 2 | > 100 | 65.2 | – | – | –
3 | CCCOC(=O)Cc1ccc(OCC(=O)N2CCCC2)c(OCC)c1 | 2.3 | 60.8 | 47.8 | – | – | –
4 | CCOc1cc(CC(=O)OC(C)C)ccc1OCC(=O)N1CCOCC1 | 1.2 | 30.8 | 76.8 | 200 | 6.5 | Time [6]: 7.5 s; Time [7]: 116.8 s; Time [8]: 54.9 s; Time [9]: 96.8 s; ED50 [10]: 11.4 mg/kg; LD50 [11]: 128 mg/kg; selectivity ratio [12]: 11.2; ED50 [13]: 7.4 mg/kg; LD50 [14]: 112 mg/kg; selectivity ratio [15]: 15.2; Time [16]: 11.1 s; Time [17]: 84.6 s; Time [18]: 32.6 s; Time [19]: 61.7 s; Time [20]: 19.9 s; Time [21]: 188.6 s; Time [22]: 81.4 s
5 | CCOC(=O)Cc1ccc(OCC(=O)N2CCNCC2)c(OC)c1 | 1.5 | > 100 | 44.5 | – | – | –
6 | CCCOC(=O)Cc1ccc(OCC(=O)N(CC)CC)c(OC)c1 [PROPANIDID] | – | 20.9 | – | – | – | Time [6]: 6.7 s; Time [7]: 89.6 s; Time [8]: 56.3 s; Time [9]: 83.9 s; ED50 [13]: 5.1 mg/kg; Time [16]: 16.3 s; Time [18]: 58.7 s; Time [19]: 79.9 s; Time [20]: 22.6 s; Time [21]: 265.4 s; Time [22]: 124.5 s
7 | CCOC(=O)Cc1ccc(OCC(=O)N2CCOCC2)c(OCC)c1 | 1.1 | 35.5 | 62.8 | 227 | 6.4 | Time [6]: 7.6 s; Time [7]: 112.9 s; Time [8]: 39.8 s; Time [9]: 69.3 s; ED50 [10]: 10.5 mg/kg; LD50 [11]: 89.3 mg/kg; selectivity ratio [12]: 8.5; ED50 [13]: 7.6 mg/kg; LD50 [14]: 131 mg/kg; selectivity ratio [15]: 17.3; Time [16]: 8.7 s; Time [17]: 78.9 s; Time [18]: 25.8 s; Time [19]: 65.8 s; Time [20]: 24.6 s; Time [21]: 197.2 s; Time [22]: 96.6 s
8 | CCOC(=O)Cc1ccc(OCC(=O)N2CCCC2)c(OC)c1 | 1.3 | 56.8 | 48.8 | – | – | –
9 | CCCOC(=O)Cc1ccc(OCC(=O)N2CCOCC2)c(OCC)c1 | 1.4 | 32.2 | 64.3 | 200 | 6.2 | Time [6]: 6.7 s; Time [7]: 104.8 s; Time [8]: 46.8 s; Time [9]: 89.6 s; ED50 [10]: 12.2 mg/kg; LD50 [11]: 123 mg/kg; selectivity ratio [12]: 10.1; ED50 [13]: 6.5 mg/kg; LD50 [14]: 108 mg/kg; selectivity ratio [15]: 16.6; Time [16]: 9.2 s; Time [17]: 81.2 s; Time [18]: 37.9 s; Time [19]: 69.6 s; Time [20]: 21.3 s; Time [21]: 211.4 s; Time [22]: 79.6 s
10 | CCOc1cc(CC(=O)OC(C)C)ccc1OCC(=O)N1CCN(C(=O)OC(C)(C)C)CC1 | 2.1 | 36.8 | 29.3 | 258 | 7 | –
11 | COc1cc(CC(=O)OC(C)C)ccc1OCC(=O)N1CCCC1 | 1.9 | 59.9 | 55.6 | – | – | –
12 | CCCOC(=O)Cc1ccc(OCC(=O)N2CCNCC2)c(OC)c1 | 1.7 | > 100 | 38.6 | – | – | –
13 | COc1cc(CC(=O)OC(C)C)ccc1OCC(=O)N1CCOCC1 | 1.3 | 46.8 | 35.7 | 276 | 5.9 | –
14 | CCOC(=O)Cc1ccc(OCC(=O)N2CCCC2)c(OCC)c1 | 2.1 | 56 | 26.5 | – | – | –
15 | CCOC(=O)Cc1cc(OCC)c(OCC(=O)N(CC)CC)cc1F | – | – | – | – | – | logP ([1]; octanol/water): 2.1
16 | CCOC(=O)Cc1ccc(OCC(=O)N2CCN(C(=O)OC(C)(C)C)CC2)c(OCC)c1 | 1.8 | 30.6 | 45.2 | 217 | 7.1 | –
17 | CCCOC(=O)Cc1ccc(OCC(=O)N2CCN(C(=O)OC(C)(C)C)CC2)c(OC)c1 | 1.9 | 43.6 | 36.1 | 340 | 7.8 | –
18 | CCCOC(=O)Cc1ccc(OCC(=O)N2CCCC2)c(OC)c1 | 1.8 | 64.2 | 72.5 | – | – | –
19 | COc1cc(CC(=O)OC(C)C)ccc1OCC(=O)N1CCN(C(=O)OC(C)(C)C)CC1 | 1.8 | 38.2 | 69.7 | 264 | 6.9 | –
20 | CCCOC(=O)Cc1ccc(OCC(=O)N2CCN(C(=O)OC(C)(C)C)CC2)c(OCC)c1 | 2.3 | 32.9 | 33.4 | 240 | 7.3 | –
21 | CCOC(=O)Cc1ccc(OCC(=O)N2CCOCC2)c(OC)c1 | 1.4 | 44.8 | 52.9 | 278 | 6.2 | –
22 | CCCOC(=O)Cc1ccc(OCC(=O)N2CCOCC2)c(OC)c1 | 1.5 | 52.9 | 46.3 | 339 | 6.4 | –
23 | CCOc1cc(CC(=O)OCC(F)(F)F)ccc1OCC(=O)N(CC)CC | 2.6 | – | – | – | – | –
24 | CCOc1cc(CC(=O)OC(C)C)ccc1OCC(=O)N1CCNCC1 | 1.5 | > 100 | 36.4 | – | – | –
25 | CCOC(=O)Cc1ccc(OCC(=O)N2CCN(C(=O)OC(C)(C)C)CC2)c(OC)c1 | 1.5 | 35.2 | 55.2 | 257 | 7.3 | –
26 | COc1cc(CC(=O)OC(C)C)ccc1OCC(=O)N1CCNCC1 | 1.8 | > 100 | 57.8 | – | – | –
27 | CC(C)c1cccc(C(C)C)c1O [PROPOFOL] | 4.2 | 11.9 | – | – | 5.1 | Time [6]: 8.1 s; Time [7]: 240.9 s; Time [8]: 46.5 s; Time [9]: 242.7 s; ED50 [13]: 3.7 mg/kg; LD50 [14]: 20.2 mg/kg; selectivity ratio [15]: 5.4; Time [16]: 10.1 s; Time [18]: 286.5 s; Time [19]: 335.8 s; Time [20]: 21.7 s; Time [21]: 326.6 s; Time [22]: 425.3 s
28 | CCCOC(=O)Cc1ccc(OCC(=O)N(CC)CC)c(OCC)c1 [AZD-3043] | 2.8 | 17.6 | – | – | – | Time [6]: 5.6 s; Time [7]: 63.8 s; Time [8]: 22.9 s; Time [9]: 89.6 s; ED50 [13]: 4.6 mg/kg; Time [16]: 12.4 s; Time [18]: 38.4 s; Time [19]: 56.9 s; Time [20]: 19.8 s; Time [21]: 221.6 s; Time [22]: 89.6 s
